Data from ChEMBL document CHEMBL4715724, “Novel 5-substituted-2-anilinoquinolines with 3-(morpholino or 4-methylpiperazin-1-yl)propoxy moiety as broad spectrum antiproliferative agents: Synthesis, cell based assays and kinase screening” (Bioorg Med Chem Lett, 2016).

Experiments:
Type in all cases: functional
[1] = tested on: Panel colon (Carcinoma cell lines); assay: cells; conditions: Homo sapiens, time 48 hrs
Description: Growth inhibition of human Panel colon (Carcinoma cell lines) incubated for 48 hrs by sulforhodamine B assay

[2] = tested on: A549; assay: cells; conditions: Homo sapiens, time 48 hrs
Description: Growth inhibition of human A549/ATCC cells incubated for 48 hrs by sulforhodamine B assay

[3] = tested on: Panel ovarian (Carcinoma cell lines); assay: cells; conditions: Homo sapiens, time 48 hrs
Description: Growth inhibition of human Panel ovarian (Carcinoma cell lines) incubated for 48 hrs by sulforhodamine B assay

[4] = tested on: HCT-116; assay: cells; conditions: Homo sapiens, time 48 hrs
Description: Growth inhibition of human HCT-116 cells incubated for 48 hrs by sulforhodamine B assay

[5] = tested on: NCI-H460; assay: cells; conditions: Homo sapiens, time 48 hrs
Description: Growth inhibition of human NCI-H460 cells incubated for 48 hrs by sulforhodamine B assay

[6] = tested on: SF-295; assay: cells; conditions: Homo sapiens, time 48 hrs
Description: Growth inhibition of human SF-295 cells incubated for 48 hrs by sulforhodamine B assay

[7] = tested on: Panel CNS (Carcinoma cell lines); assay: cells; conditions: Homo sapiens, time 48 hrs
Description: Growth inhibition of human Panel CNS (Carcinoma cell lines) incubated for 48 hrs by sulforhodamine B assay

[8] = tested on: OVCAR-4; assay: cells; conditions: Homo sapiens, time 48 hrs
Description: Growth inhibition of human OVCAR-4 cells incubated for 48 hrs by sulforhodamine B assay

[9] = tested on: Hs-578T; assay: cells; conditions: Homo sapiens, time 48 hrs
Description: Growth inhibition of human Hs-578T cells incubated for 48 hrs by sulforhodamine B assay

[10] = tested on: PC-3; assay: cells; conditions: Homo sapiens, time 48 hrs
Description: Growth inhibition of human PC-3 cells incubated for 48 hrs by sulforhodamine B assay

[11] = tested on: MDA-MB-231; assay: cells; conditions: Homo sapiens, time 48 hrs
Description: Growth inhibition of human MDA-MB-231/ATCC cells incubated for 48 hrs by sulforhodamine B assay

[12] = tested on: OVCAR-8; assay: cells; conditions: Homo sapiens, time 48 hrs
Description: Growth inhibition of human OVCAR-8 cells incubated for 48 hrs by sulforhodamine B assay

[13] = tested on: Panel melanoma (Carcinoma cell lines); assay: cells; conditions: Homo sapiens, time 48 hrs
Description: Growth inhibition of human Panel melanoma (Carcinoma cell lines) incubated for 48 hrs by sulforhodamine B assay

[14] = tested on: IGROV-1; assay: cells; conditions: Homo sapiens, time 48 hrs
Description: Growth inhibition of human IGROV-1 cells incubated for 48 hrs by sulforhodamine B assay

[15] = tested on: TK-10; assay: cells; conditions: Homo sapiens, time 48 hrs
Description: Growth inhibition of human TK-10 cells incubated for 48 hrs by sulforhodamine B assay

[16] = tested on: SR; assay: cells; conditions: Homo sapiens, time 48 hrs
Description: Growth inhibition of human SR cells incubated for 48 hrs by sulforhodamine B assay

[17] = tested on: NCI-H23; assay: cells; conditions: Homo sapiens, time 48 hrs
Description: Growth inhibition of human NCI-H23 cells incubated for 48 hrs by sulforhodamine B assay

[18] = tested on: MCF7; assay: cells; conditions: Homo sapiens, time 48 hrs
Description: Growth inhibition of human MCF7 cells incubated for 48 hrs by sulforhodamine B assay

[19] = tested on: NCI-H322M; assay: cells; conditions: Homo sapiens, time 48 hrs
Description: Growth inhibition of human NCI-H322M cells incubated for 48 hrs by sulforhodamine B assay

[20] = tested on: UO-31; assay: cells; conditions: Homo sapiens, time 48 hrs
Description: Growth inhibition of human UO-31 cells incubated for 48 hrs by sulforhodamine B assay

[21] = tested on: A498; assay: cells; conditions: Homo sapiens, time 48 hrs
Description: Growth inhibition of human A498 cells incubated for 48 hrs by sulforhodamine B assay

[22] = tested on: SK-MEL-28; assay: cells; conditions: Homo sapiens, time 48 hrs
Description: Growth inhibition of human SK-MEL-28 cells incubated for 48 hrs by sulforhodamine B assay

[23] = tested on: Panel NCI-60 (60 carcinoma cell lines); assay: cells; conditions: Homo sapiens, time 48 hrs
Description: Growth inhibition of human Panel NCI-60 (60 carcinoma cell lines) incubated for 48 hrs by sulforhodamine B assay

[24] = tested on: UACC-62; assay: cells; conditions: Homo sapiens, time 48 hrs
Description: Growth inhibition of human UACC-62 cells incubated for 48 hrs by sulforhodamine B assay

[25] = cells; conditions: Homo sapiens, Non-small cell lung cancer cell line; time 48 hrs
Description: Growth inhibition of human Non-small cell lung cancer cell line incubated for 48 hrs by sulforhodamine B assay

[26] = tested on: HOP-62; assay: cells; conditions: Homo sapiens, time 48 hrs
Description: Growth inhibition of human HOP-62 cells incubated for 48 hrs by sulforhodamine B assay

[27] = tested on: LOX IMVI; assay: cells; conditions: Homo sapiens, time 48 hrs
Description: Growth inhibition of human LOX IMVI cells incubated for 48 hrs by sulforhodamine B assay

[28] = tested on: MDA-MB-468; assay: cells; conditions: Homo sapiens, time 48 hrs
Description: Growth inhibition of human MDA-MB-468 cells incubated for 48 hrs by sulforhodamine B assay

[29] = tested on: HOP-92; assay: cells; conditions: Homo sapiens, time 48 hrs
Description: Growth inhibition of human HOP-92 cells incubated for 48 hrs by sulforhodamine B assay

[30] = tested on: NCI-H522; assay: cells; conditions: Homo sapiens, time 48 hrs
Description: Growth inhibition of human NCI-H522 cells incubated for 48 hrs by sulforhodamine B assay

[31] = tested on: HCT-15; assay: cells; conditions: Homo sapiens, time 48 hrs
Description: Growth inhibition of human HCT-15 cells incubated for 48 hrs by sulforhodamine B assay

[32] = tested on: U-251; assay: cells; conditions: Homo sapiens, time 48 hrs
Description: Growth inhibition of human U-251 cells incubated for 48 hrs by sulforhodamine B assay

[33] = tested on: Panel renal (Carcinoma cell lines); assay: cells; conditions: Homo sapiens, time 48 hrs
Description: Growth inhibition of human Panel renal (Carcinoma cell lines) incubated for 48 hrs by sulforhodamine B assay

[34] = tested on: KM12; assay: cells; conditions: Homo sapiens, time 48 hrs
Description: Growth inhibition of human KM12 cells incubated for 48 hrs by sulforhodamine B assay

[35] = tested on: CCRF-CEM; assay: cells; conditions: Homo sapiens, time 48 hrs
Description: Growth inhibition of human CCRF-CEM cells incubated for 48 hrs by sulforhodamine B assay

[36] = tested on: SNB-75; assay: cells; conditions: Homo sapiens, time 48 hrs
Description: Growth inhibition of human SNB-75 cells incubated for 48 hrs by sulforhodamine B assay

[37] = tested on: Panel breast (Carcinoma cell lines); assay: cells; conditions: Homo sapiens, time 48 hrs
Description: Growth inhibition of human Panel breast (Carcinoma cell lines) incubated for 48 hrs by sulforhodamine B assay

[38] = tested on: Panel prostate (Carcinoma cell lines); assay: cells; conditions: Homo sapiens, time 48 hrs
Description: Growth inhibition of human Panel prostate (Carcinoma cell lines) incubated for 48 hrs by sulforhodamine B assay

[39] = tested on: SK-MEL-5; assay: Growth inhibition of human SK-MEL-5 cells assessed as growth percentage at 10 uM measured after 48 hrs by sulforhodamine B assay relative to control; conditions: read-out: Activity
[40] = tested on: NCI-H226; assay: cells; conditions: Homo sapiens, time 48 hrs
Description: Growth inhibition of human NCI-H226 cells incubated for 48 hrs by sulforhodamine B assay

[41] = tested on: UACC-257; assay: cells; conditions: Homo sapiens, time 48 hrs
Description: Growth inhibition of human UACC-257 cells incubated for 48 hrs by sulforhodamine B assay

[42] = tested on: OVCAR-3; assay: cells; conditions: Homo sapiens, time 48 hrs
Description: Growth inhibition of human OVCAR-3 cells incubated for 48 hrs by sulforhodamine B assay

[43] = tested on: HT-29; assay: cells; conditions: Homo sapiens, time 48 hrs
Description: Growth inhibition of human HT-29 cells incubated for 48 hrs by sulforhodamine B assay

[44] = tested on: Panel leukemia (Carcinoma cell lines); assay: cells; conditions: Homo sapiens, time 48 hrs
Description: Growth inhibition of human Panel leukemia (Carcinoma cell lines) incubated for 48 hrs by sulforhodamine B assay

[45] = tested on: RXF 393; assay: cells; conditions: Homo sapiens, time 48 hrs
Description: Growth inhibition of human RXF 393 cells incubated for 48 hrs by sulforhodamine B assay

[46] = tested on: K562; assay: cells; conditions: Homo sapiens, time 48 hrs
Description: Growth inhibition of human K562 cells incubated for 48 hrs by sulforhodamine B assay

[47] = tested on: COLO 205; assay: Growth inhibition of human COLO 205 cells assessed as growth percentage at 10 uM measured after 48 hrs by sulforhodamine B assay relative to control; conditions: read-out: Activity
[48] = read-out: LC50 (the source's name)

## CN1CCN(CCCOc2cccc3nc(Nc4ccc(F)c(F)c4)ccc23)CC1
[1]
  GI50: 2.11 µM
  TGI: 5.9 µM
[1]; [48]
  CC50: 12.2 µM
[2]
  GI50: 3.5 µM
[3]
  GI50: 5.13 µM
  LC50: 20.5 µM
  TGI: 10.8 µM
[4]
  GI50: 3.8 µM
[5]
  GI50: 2.37 µM
[6]
  GI50: 4.64 µM
[7]
  GI50: 4.1 µM
  TGI: 9.09 µM
[7]; [48]
  CC50: 16.1 µM
[8]
  GI50: 6.42 µM
[9]
  GI50: 4.73 µM
[10]
  GI50: 3.83 µM
[11]
  GI50: 0.937 µM
[12]
  GI50: 5.13 µM
[13]
  GI50: 1.69 µM
  LC50: 10.5 µM
  TGI: 4.4 µM
[14]
  GI50: 5.55 µM
[15]
  GI50: 2.63 µM
[16]
  GI50: 0.87 µM
[17]
  GI50: 4.67 µM
[18]
  GI50: 3.33 µM
[19]
  GI50: 3.93 µM
[20]
  GI50: 4.34 µM
[21]
  GI50: 5.66 µM
[22]
  GI50: 1.08 µM
[23]
  GI50: 2.63 µM
  TGI: 6.76 µM
[23]; [48]
  CC50: 16.2 µM
[24]
  GI50: 0.7 µM
[25]
  GI50: 3.17 µM
  LC50 (50% lethal concentration): 18.9 µM
  TGI: 7.79 µM
[26]
  GI50: 1.25 µM
[27]
  GI50: 1.03 µM
[28]
  GI50: 2.11 µM
[29]
  GI50: 1.43 µM
[30]
  GI50: 1.01 µM
[31]
  GI50: 0.96 µM
[32]
  GI50: 2.68 µM
[33]
  GI50: 4.16 µM
  LC50 (lethal concentration 50%): 18.9 µM
  TGI: 8.98 µM
[34]
  GI50: 2.35 µM
[35]
  GI50: 2.42 µM
[36]
  GI50: 3.92 µM
[37]
  GI50: 3.14 µM
  TGI: 7.98 µM
[37]; [48]
  CC50: 20.3 µM
[38]
  GI50: 4.07 µM
  LC50 (concentration killing 50% of cells): 18 µM
  TGI: 8.55 µM
[39]
  growth at 10 µM: -26.8%
[40]
  GI50: 5.51 µM
[41]
  GI50: 0.66 µM
[42]
  GI50: 4.58 µM
[43]
  GI50: 0.62 µM
[44]
  GI50: 2.6 µM
  LC50 (50% lethal concentration): 21.1 µM
  TGI: 7.09 µM
[45]
  GI50: 2.11 µM
[46]
  GI50: 0.66 µM

## Fc1ccc(Nc2ccc3c(OCCCN4CCOCC4)cccc3n2)cc1F
[47]
  growth at 10 µM: 66.5%
